# Assay results as given in patent US20260132160A1, “IRON REPLACEMENT TREATMENTS” (The General Hospital Corporation, priority 2022, published 2026).
# “Also recorded” adds a separate entry of the source.
# What was measured:
# [1] = Stability of Fe-BBG against trans-chelation by endogenous chelators (UV-vis); type: physicochemical
# Excerpt: In other words, the ligand BBG binds to Fe^3+ with an estimated 230±40 times higher affinity than citrate.
# apo-transferrin [2] = biological target: T1, apo-transferrin (Homo sapiens, UniProt P02787); experiment: Fe delivery to apo-transferrin (fluorescence quenching, urea gel electrophoresis); type: biochemical
# T1 sequence (P02787 20-698): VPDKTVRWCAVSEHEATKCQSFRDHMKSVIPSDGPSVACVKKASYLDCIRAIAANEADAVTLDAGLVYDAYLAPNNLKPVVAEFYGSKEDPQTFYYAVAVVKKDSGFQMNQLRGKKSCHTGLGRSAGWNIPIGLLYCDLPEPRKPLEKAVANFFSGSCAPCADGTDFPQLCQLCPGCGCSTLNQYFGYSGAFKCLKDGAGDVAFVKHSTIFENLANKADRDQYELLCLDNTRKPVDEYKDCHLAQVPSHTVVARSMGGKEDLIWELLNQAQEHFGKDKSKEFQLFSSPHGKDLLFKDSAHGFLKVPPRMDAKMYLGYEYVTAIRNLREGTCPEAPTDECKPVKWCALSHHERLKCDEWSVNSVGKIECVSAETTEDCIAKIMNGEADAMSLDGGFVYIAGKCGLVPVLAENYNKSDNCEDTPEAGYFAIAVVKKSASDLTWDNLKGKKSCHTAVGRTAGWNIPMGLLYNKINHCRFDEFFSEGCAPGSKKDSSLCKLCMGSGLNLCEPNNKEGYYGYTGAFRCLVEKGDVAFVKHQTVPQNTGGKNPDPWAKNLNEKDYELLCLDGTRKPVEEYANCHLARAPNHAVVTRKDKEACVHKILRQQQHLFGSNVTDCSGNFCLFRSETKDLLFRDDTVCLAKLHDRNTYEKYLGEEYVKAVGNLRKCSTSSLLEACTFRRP
# Description: Incubation with FPC was positive control, the stable compound Fe-PyC3A was negative control (Conditions: 50 mM HEPES buffer supplemented with 25 mM bicarbonate, pH 7.4, 37° C.).
# Transfer of Fe from Fe-BBG to apo-transferrin can be monitored through quenching of the apo-transferrin intrinsic fluorescence.
# Transfer of Fe from Fe-BBG to apo-transferrin can also be monitored using urea gel electrophoresis.
# apo-transferrin [3] = biological target: T1, apo-transferrin; experiment: Time course of Fe3+ transfer to apo-transferrin (fluorescence at 330 nm); type: biochemical; details: 40 μM Fe-BBG, 20 μM apo-transferrin, pH 7.4; instrument temporal resolution 6 s
# Description: FIG. 5 plots the time course of Fe^3+ transfer of Fe-BBG to transferrin. The reaction was monitored through the quenching of apo-transferrin intrinsic fluorescence (conditions: 40 μM Fe-BBG, 20 μM apo-transferrin, 50 mM HEPES buffer supplemented with 25 mM HCO3, pH 7.4; 25° C. λEx=280 nm.). Fe^3+ transfer from Fe-BBG to apo-transferrin was complete within 6 s. The temporal resolution of the instrument is 6 s, and the reaction is too fast for us to quantify kinetics.
# [4] = Ascorbate reduction challenge (UV-vis); type: physicochemical; details: 0.1 mM Fe-BBG, 0.1 mM sodium ascorbate, pH 7.4
# [5] = Pharmacokinetics by dynamic magnetic resonance imaging; type: in vivo; details: mouse
# Excerpt: Fe-BBG is paramagnetic, which enables us to monitor Fe-BBG blood clearance and excretion through dynamic magnetic resonance imaging.
# [6] = pH-potentiometric titration, Fe3+ complex; type: physicochemical; details: 310 K, I=0.1 M NaCl
# Description: The aqueous solutions thermodynamics of BBG and its corresponding complexes of Fe^3+, Cu^2+, and Zn^2+ were interrogated through pH-potentiometric titration of BBG (L) in the absence and presence of 1 molar equivalent of Fe^3+, Cu^2+, or Zn^2+, FIG. 13A.
# pH-potentiometric measurements were performed using an Orion ROSS Ultra pH electrode and temperature-controlled reaction vessel held at 310 K. A standardized solution of 0.10 M NaOH was used as the titrant. The electrode was calibrated prior to each titration by titrating a standardized HCl(aq) solution at ionic strength 0.10 using NaCl as the inert electrolyte with the standardized NaOH titrant. A working slope and intercept were generated by plotting mV as a function of calculated pH, which enabled direct conversion of electrode readings to [H^+] during sample titrations. pH values recorded during the titrations refers to hydrogen ion concentration. All titration samples were prepared in solutions of 0.10 M NaCl in distilled, deionized water. Ligand solutions were prepared by dissolving a weighed quantity into water and concentration was determined from the effective weight of the ligand and confirmed by the quantity of NaOH required to consume 1 molar equivalent of ligand proton. […]
# Tmprss6 knockout mice [7] = experiment: Therapeutic efficacy in mouse model of iron refractory iron deficiency anemia; type: in vivo
# Description: (§1) Tmprss6 knockout mice received 29 intraperitoneal injections each containing 25 μg Fe as Fe-BBG (1.3±0.18 μg Fe per gram body weight, N=5 mice, 2 male, 3 female) or containing saline (placebo, N=5 mice, 2 male, 3 female) over 15 days. The cumulative dose of Fe was 725 μg Fe (37±0.53 μg Fe per gram body weight). The mice were euthanized 120 min after the final injection. Blood was harvested for measurement of complete blood counts, and nonheme Fe parameters. Bone marrow and liver tissue were analyzed by qPCR for expression of genes related to erythropoietic activity, Fe exposure, oxidative stress, and inflammation, the data are tabulated in FIG. 15. Clinical chemistry was also recorded, see Example 16 below. FIG. 15 data are shown as mean±standard deviation. Statistical differences between groups were determined by two-tailed Student's t-test for normally distributed values or Mann-Whitney (/test for non-normally distributed values. Significant differences are indicated by *P<0.05, **P<0.01, ****P<0.0001.
# Tmprss6 knockout mice [8] = experiment: Tolerability after repeat dosing (clinical chemistry, liver qPCR); type: in vivo, mouse
# Description: as §1
# FIG. 16 data are shown as mean±standard deviation. Statistical differences between groups were determined by two-tailed Student's t-test for normally distributed values or Mann-Whitney U test for non-normally distributed values. Significant differences are indicated by *P<0.05, **P<0.01, ***P<0.001, ****P<0.0001.
# [9] = 29 i.p. injections of 25 μg Fe over 15 days, vs placebo
# [10] = 120 min after final injection, vs placebo
compound,measurement,setting,value
O.O.O=C([O-])CC[C@H]1C(=O)[O][Fe]2[O]c3ccccc3CN1Cc1ccccc1[O]2 [Fe-BBG],stability against trans-chelation by endogenous chelators,[1],stable against trans-chelation reactions
same,Kcomp for challenge with citrate,"[1]; 0-10 molar equivalents citrate, absorbance at 465 nm, pH 7.4",0.006±0.002
same,UV-vis traces in presence of competing chelators,"[1]; 0.1 mM Fe-BBG, up to 100 molar equivalents bicarbonate, acetate, lactate, phosphate, pH 7.4 50 mM HEPES",remain unchanged
same,Fe^3+ transfer to apo-transferrin,"apo-transferrin [2]; 50 mM HEPES, 25 mM bicarbonate, pH 7.4, 37° C.",stoichiometric transfer
same,Fe^3+ transferred to apo-transferrin,"apo-transferrin [2]; urea gel, 10 μM apo-transferrin, 0-10 equiv Fe-BBG",2 molar equivalents
same,time to complete Fe^3+ transfer to apo-transferrin,apo-transferrin [3],≤ 6 s
same,462 nm absorption peak upon challenge with ascorbate,[4],remains unchanged
same,blood elimination half life (vena cava MR signal),"[5]; 0.14 mmol/kg injection, monoexponential fit",5.5 ± 2.8 min
same,"hepatobiliary excretion (liver, gallbladder, bowel enhancement)",[5]; MRI,partial hepatobiliary excretion
same,renal excretion (kidney enhancement),[5]; MRI,rapid elimination through the kidneys; also recorded: rapid urinary excretion
same,conditional pH 7.4 stability constant log KFeL PH 7.4,[6],19.51
same,hematocrit,Tmprss6 knockout mice [7]; [9],increased significantly
same,hemoglobin,Tmprss6 knockout mice [7]; [9],significant elevation
same,mean corpuscle volume,Tmprss6 knockout mice [7]; [9],significantly increased
same,red cell width,Tmprss6 knockout mice [7]; [9],significantly increased
same,mean % TSAT increase,Tmprss6 knockout mice [7]; [10],~7 fold
same,serum Fe,Tmprss6 knockout mice [7]; [10],elevated
same,total iron binding capacity (TIBC),Tmprss6 knockout mice [7]; [10],unchanged relative to placebo
same,unbound iron binding capacity (UIBC),Tmprss6 knockout mice [7]; [10],concomitant decrease
same,clearance of Fe-BBG from serum,Tmprss6 knockout mice [7]; 120 min after the final injection,cleared entirely
same,bone marrow erythroferrone (Erfe) expression,Tmprss6 knockout mice [7]; qPCR,significantly downregulated
same,glycophorin A (GypA) expression,"Tmprss6 knockout mice [7]; qPCR, bone marrow",downregulated
same,transferrin receptor type 1 (Tfrc) expression,"Tmprss6 knockout mice [7]; qPCR, bone marrow",downregulated
same,other hematology parameters,Tmprss6 knockout mice [7]; vs placebo,No noteworthy differences
same,oxidative stress,"Tmprss6 knockout mice [8]; from Hmox1, Gclc, NqoI taken together",did not result in oxidative stress
same,Serum amyloid A1 (SaaI) expression,"Tmprss6 knockout mice [8]; qPCR, marker of inflammation, repeat dosing",unchanged
same,liver NAD (P) H quinone dehydrogenase 1 (NqoI) expression,"Tmprss6 knockout mice [8]; qPCR, repeat dosing",did not trigger upregulation
same,liver glutamate-cysteine ligase catalytic subunit (Gclc) expression,"Tmprss6 knockout mice [8]; qPCR, repeat dosing",did not trigger upregulation
same,liver heme oxygenase 1 (Hmox1) expression,"Tmprss6 knockout mice [8]; qPCR, repeat dosing",did not trigger upregulation
same,clinical chemistry parameters,"Tmprss6 knockout mice [8]; repeat dosing, vs placebo",did not generate significant differences
